Series [1] can be described thus: Pharmacokinetic test in rats (plasma and brain). It is filed as in vivo, SD rats. To be noted: male SD rats. From the text:
3.1 Experimental animals: male SD rats, about 220 g, 6-8 weeks old, divided into an intravenous group and an intragastric group.
3.2 Experimental design: on the day of the experiment, the SD rats were randomly grouped according to their body weights. […] Table 5. Administration information
The whole blood was centrifuged to separate the plasma; the brain tissue was rinsed with cold physiological saline to remove the residual blood on the surface, drained out and then homogenized. Before analysis and detection, all samples were stored at -80°C, and the samples were quantitatively analysed by LC-MS/MS. Table 6. Pharmacokinetic parameters of test compound in plasma of rats

The target in the next series is T1, M4 receptor (Homo sapiens, UniProt P08173).
T1 construct: expressed in transfected cells; host or cells: CHO (M4-CHO cells)
T1 sequence (P08173 1-479): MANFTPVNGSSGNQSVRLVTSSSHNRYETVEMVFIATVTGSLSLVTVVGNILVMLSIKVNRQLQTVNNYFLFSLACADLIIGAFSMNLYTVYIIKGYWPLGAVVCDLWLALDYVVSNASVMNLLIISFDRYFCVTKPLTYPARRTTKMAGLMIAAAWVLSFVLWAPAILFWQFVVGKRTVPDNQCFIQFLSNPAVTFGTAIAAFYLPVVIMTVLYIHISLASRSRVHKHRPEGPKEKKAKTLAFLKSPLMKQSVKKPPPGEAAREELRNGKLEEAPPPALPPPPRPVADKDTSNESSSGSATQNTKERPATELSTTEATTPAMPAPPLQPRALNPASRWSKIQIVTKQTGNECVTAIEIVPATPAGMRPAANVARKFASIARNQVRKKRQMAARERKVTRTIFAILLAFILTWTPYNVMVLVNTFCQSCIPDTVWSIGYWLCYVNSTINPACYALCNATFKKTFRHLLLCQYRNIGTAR
Put plainly: PAM agonistic activity of compound on M4 receptor (FLIPR Calcium 6 assay in M4-CHO cells). Format: cell-based. To be noted: with acetylcholine (Ach), final concentration 3 nM. In a few lines: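 CHO cells expressing M4, plated 16–20 h, loaded 120 min at 37 °C with Calcium 6 dye. Test compound added together with acetylcholine (3 nM final) on FLIPR Tetra; fluorescence read at 515–575 nm. EC50 from nonlinear regression of signal versus concentration.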

Series [2] in a line: Pharmacokinetic test in mice (plasma and brain). It is filed as in vivo, C57 mice. The following applies: for F: i.g. 10 mg/kg versus i.v. 2.5 mg/kg. The text has this: 2.1 Experimental animals: male C57 mice, 20-25 g, divided into an intravenous group and an intragastric group.
2.2 Experimental design: on the day of the experiment, the C57 mice were randomly grouped according to their body weights. […] Table 2. Administration information
The whole blood was centrifuged to separate the plasma; the brain tissue was rinsed with cold physiological saline to remove the residual blood on the surface, drained out and then homogenized. Before analysis and detection, all samples were stored at -80°C, and the samples were quantitatively analysed by LC-MS/MS. Table 3. Pharmacokinetic parameters of test compounds in mice

The mark [3] stands for this setting: rat, in vivo, plasma, i.v. 2.5 mg/kg and i.g. 10 mg/kg groups, route of the parameter not given.
The mark [4] stands for this setting: mouse, male C57 mice, plasma, i.v. 2.5 mg/kg and i.g. 10 mg/kg groups, route of the parameter not given.
[5] abbreviates: mouse, male C57 mice, plasma, i.v. 2.5 mg/kg and i.g. 10 mg/kg groups, route of the parameter not given, read-out: AUC0-t.
The mark [6] stands for this setting: mouse, in vivo, male C57 mice, plasma, i.v. 2.5 mg/kg and i.g. 10 mg/kg groups, route of the parameter not given.

The structures appear in SMILES notation.

As to `Cc1cc(C)c2c(n1)CN(C(=O)CC1CN(c3ccnc(-n4ccc(C)n4)c3)C1)C2` [Compound 29], the F in series [1] (i.g. 10 mg/kg versus i.v. 2.5 mg/kg) is reported as above 98%. In series [1] (setting [3]), this molecule showed a Cmax of 7.96 µg/mL, a clearance of 1.13 L/h/kg and a half-life of 0.646 h. In addition, the AUC(0-t) in series [1] (rat, in vivo, plasma, i.v. 2.5 mg/kg and i.g. 10 mg/kg groups, route of the parameter not given, read-out: AUC0-t) worked out at 12.2 µg·h/mL. Moreover, at M4 receptor, the EC50 was below 0.1 µM.

As to `Cc1cc(-c2cnn(C)c2)nc2c1CN(C(=O)CC1CN(c3ccnc(OC4CC(F)(F)C4)c3)C1)C2` [Compound 104], in series [2] (male C57 mice), the F is given as above 98%. In addition, in series [2] (mice, i.g. (10 mg/kg)), the “Brain tissue AUC0-t” value was found to be 4776 ng·h/g. For the same molecule, in series [2] (mouse, in vivo, po, mice, i.g. (10 mg/kg), read-out: Brain/plasma ratio), the Kp was 0.528. Besides, the AUC(0-t) in series [2] (mouse, in vivo, po, mice, i.g. (10 mg/kg), read-out: Plasma AUC0-t) turned out to be 2.52 µg·h/mL. Besides, in series [2] (setting [4]), the highest level (Cmax) was 4.54 µg/mL, the clearance came out at 0.666 L/h/kg and the half-life was 2.2 h. Besides, in series [2] (setting [5]), the AUC(0-t) is 16.9 µg·h/mL. At M4 receptor, the EC50 is below 0.1 µM.

In the case of `Cc1nc(-c2cnn(C)c2)nc2c1CN(C(=O)CC1CN(c3ccnc(C(F)(F)F)c3)C1)C2` [Compound 122], the F in series [2] (male C57 mice) was above 98%. In addition, in series [2] (setting [6]), the Cmax amounted to 6.4 µg/mL, the clearance was determined as 0.554 L/h/kg and the half-life is 2.94 h. The AUC(0-t) in series [2] (mouse, in vivo, male C57 mice, plasma, i.v. 2.5 mg/kg and i.g. 10 mg/kg groups, route of the parameter not given, read-out: AUC0-t) worked out at 26.3 µg·h/mL. Moreover, at M4 receptor, the EC50 was below 0.1 µM.

As to `Cc1c2c(n(C)c(=O)c1F)CN(C(=O)CC1CN(c3ccnc(OC4CC(=C(F)F)C4)c3)C1)C2` (stereo not drawn) [Compound 213], on M4 receptor, the EC50 is below 0.1 µM.

Take `Cc1c2c(n(C)c(=O)c1F)CN(C(=O)CC1CN(c3ccnc(Oc4cnn(C)c4)c3)C1)C2` [Compound 214]: the EC50 at M4 receptor was below 0.1 µM.

Regarding `Cc1c2c(n(C)c(=O)c1F)CN(C(=O)CC1CN(c3ccnc(OC4CC4)c3)C1)C2` [Compound 215], the EC50 at M4 receptor is below 0.1 µM.

For the molecule `Cc1cc(-c2cnoc2)nc2c1CN(C(=O)CC1CN(c3ccnc(OC4CC(F)(F)C4)c3)C1)C2` [Compound 216], on M4 receptor, the EC50 is below 0.1 µM.

As for `Cc1cc(C)c2c(n1)CN(C(=O)CC1CN(c3ccnc(C(F)(F)F)c3)C1)C2` [DZ-01, reference compound], the F in series [2] (male C57 mice) was above 98%. In series [2] (setting [4]), this molecule showed a Cmax of 3.79 µg/mL, a clearance of 4.51 L/h/kg and a half-life of 1.23 h. In addition, the AUC(0-t) in series [2] (setting [5]) stood at 3.61 µg·h/mL.

Broadly, the Cmax is the highest concentration seen after dosing. In general, clearance refers to the rate of elimination divided by the concentration. One may read the half-life as how long it takes for the measured level to halve. High values mean slow decline, low ones rapid decline. In general, EC50 refers to the midpoint of the concentration-response curve.
